This note sets out measurements from US20200390100A1, “SUBSTITUTED N-HETEROCYCLYL- AND N-HETEROARYL-TETRAHYDROPYRIMIDINONES AND THE SALTS THEREOF, AND THE USE OF SAME AS HERBICIDAL ACTIVE SUBSTANCES” (Bayer Aktiengesellschaft, priority 2017, published 2020).

Test [1] has as its system Polygonum convolvulus. Briefly: Pre-emergence herbicidal action, greenhouse, 320 g/ha. It counts as in vivo. As to conditions: application rate 320 g/ha, scored visually after about 3 weeks vs untreated controls. In outline:
(§1)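 Soil-surface application onto covered seeds; WP or EC formulation with 0.5% additive in aqueous spray; visual rating at ~3 weeks, 0–100% vs untreated plants.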

The test system of test [2] is Digitaria sanguinalis. The description is as above. It is filed as in vivo. The settings on record: application rate 320 g/ha, Table B9. In outline: as §1
Test [3] deals with T1, photosystem II (PS II) (Spinacia oleracea, UniProt P69560).
T1 construct: the chloroplasts were osmotically ruptured and the thylakoid membranes were then obtained by centrifugation; from tissue; host or cells: fresh spinach leaves; thylakoid membrane preparation from isolated chloroplasts
Kind of test: Measurement of PS II activity in thylakoid membranes (DCPIP reduction). It counts as biochemical, spinach. The settings on record: PS II activity in spinach thylakoid membranes, Table E1; read-out: Effect. Summed up: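 Thylakoid membranes from osmotically ruptured spinach chloroplasts in 50 mM phosphate pH 6.8, 10 mM KCl; compounds added from 100 μM DMSO solution (2.5% DMSO final), 120 μM DCPIP final. DCPIP reduction under light tracked as absorbance decrease at 595 nm over 10 min at 22 °C; % inhibition binned, metribuzin as plate standard.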

Test [4] deals with Echinochloa crus-galli. Briefly: Herbicidal post-emergence action (Part 2), 1280 g/ha. It is filed as in vivo. The settings on record: post-emergence (Part 2), application rate 1280 g/ha, rated visually after about 3 weeks vs untreated controls. In outline:
(§2)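 Post-emergence greenhouse test: one-leaf-stage weeds (2–3 wk after sowing, sandy loam) sprayed onto green parts; WP/EC in water + 0.5% additive, 600 L/ha. Visual rating ~3 wk, 0–100% vs untreated.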

The subject of test [5] is Stellaria media. The test is described as above. The settings on record: application rate 1280 g/ha, rated visually after about 3 weeks, Table C7. It is filed as in vivo. In outline:
as §2

Test [6] relates to Matricaria inodora. The test is described as above. It is filed as in vivo. As to conditions: application rate 1280 g/ha, rated visually after about 3 weeks, Table C6. In outline:
as §2

Test [7] has as its system Abutilon theophrasti. Described as above. It is filed as in vivo. As to conditions: application rate 1280 g/ha, rated visually after about 3 weeks, Table C4. In outline: as §2
For test [8], the system named is Poa annua. The test is described as above. It is filed as in vivo. The settings on record: application rate 1280 g/ha, rated visually after about 3 weeks, Table C2. Summed up:
as §2

Test [9] deals with Amaranthus retroflexus. Described as above. It counts as in vivo. The settings on record: application rate 1280 g/ha, rated visually after about 3 weeks, Table C5. Summed up: as §2
Test [10] has as its system Setaria viridis. Described as above. It counts as in vivo. As to conditions: application rate 1280 g/ha, rated visually after about 3 weeks, Table C3. Summed up:
as §2

`CC1CC(O)N(c2cc(C(C)(C)C)on2)C(=O)N1C` (stereo not shown) [I.41-162, 1-(5-tert-Butyl-1,2-oxazol-3-yl)-6-hydroxy-3,4-dimethyltetrahydropyrimidin-2(1H)-one]: the “Polygonum convolvulus (efficacy in %)” value in test [1] stood at 100%. Further, the “Digitaria sanguinalis (efficacy in %)” value in [2] came out at 100%. In addition, the inhibition at 100 µM in test [3] was 70 to 90%. This compound also returned an Echinochloa crus-galli in test [4] of 100%. The Stellaria media in test [5] turned out to be 100%. In test [6], the Matricaria inodora worked out at 100%. In addition, in [7], the Abutilon theophrasti is given as 100%. In addition, in test [8], the “Poa Annua” value is listed as 100%. Further, in test [9], the Amaranthus retroflexus was found to be 100%. Besides, the Setaria viridis in test [10] came to 100%.
